Results on 49 compounds are retold here after patent publication US7060444B1, “Zone 3 necrosis associated markers and method of use thereof” (CuraGen Corporation, priority 2002, dated 2006).

The structures appear in SMILES notation. Read-outs that look alike come from different tables or passages of the source.

In data set [1] the test system is rat livers.
Excerpt: (§1) Each compound was delivered orally on a daily basis at a high dose (tox dose) and a 1/10 low dose (mode dose) for up to 14 days. Five male rats/dose/time were randomly assigned to sacrifice on days 1, 3, 7, and 14.
(§2) In order to construct in vivo models, the pathology of each sample had to be determined. Pathology was assigned to each liver sample by the pathologists at Bayer's Stillwell, Kans. facility. Criteria for inclusion of a compound into a particular mode included the following: • i.
Data set [2] concerns liver. The conditions noted are these: once converted to reactive metabolites; cited from earlier work.
For data set [3], the system named is rat livers. Kind of data set: Induction of Zone 3 Necrosis in vivo, liver pathology annotation. The conditions noted are these: for Zone 3 Necrosis in vivo: Pathology Present: sampled 1, 3, 7, 14 d.
Excerpt: as §1, §2
Data set [4] concerns liver. Kind of data set: In vivo pathology annotation: Hypertrophy. Also on record: species or system rat. The conditions noted are these: in vivo compound annotation. From the text: Hypertrophy: Increase in cell size and liver weight. • iv. […] Steatosis: Increase in lipid accumulation or “vacuolar degeneration.” • vii. […] Two approaches were used.
Data set [5] has as its system liver. The following applies: rats, through a sequence of events that begin with necrosis; cited from earlier work.
The mark [6] stands for this setting: rat primary hepatocytes, 250 microM.
Setting [7] is: rat primary hepatocytes, 100 microM.
Where [8] appears, read: rat primary hepatocytes, 40 microM.
The mark [9] stands for this setting: rat primary hepatocytes, 20 microM.
The mark [10] stands for this setting: rat primary hepatocytes, 1000 microM.
[11] abbreviates: rat primary hepatocytes, 2 microM.
[12] abbreviates: rat primary hepatocytes, 50 microM.

Turning to `Brc1cccc(Br)c1` [1,3-Dibromobenzene], the “Zone 3 Necrosis in vivo: Pathology Present” value in the data set with rat livers [1] (male) was determined as 1 d. Moreover, in the data set with Rat primary hepatocytes (setting [6]), the “Zone 3 Necrosis Pathology” value is “Present”. With `Clc1ccc(Cl)cc1` [1,4-dichlorobenzene], the “Zone 3 Necrosis Pathology” value with Rat primary hepatocytes (setting [7]) is reported as “Absent”. For the compound `Cc1cc(N=Nc2ccccc2)ccc1N(C)C` [3-methyl-4-(dimethylamino)azobenzene], the “Zone 3 Necrosis Pathology” value in the data set on Rat primary hepatocytes (rat primary hepatocytes, 1.6 microM) is “Absent”. Consider `Cc1ccc2cc3c(ccc4ccccc43)c3c2c1CC3` [3-methylcholanthrene], for which the “Zone 3 Necrosis Pathology” value in the data set on Rat primary hepatocytes (setting [8]) was “Absent”.

`CC(=O)Nc1ccc(O)cc1` [Acetaminophen]: the “zonal necrosis of the liver produced” value in the data set on liver [2] is reported as “produce mainly zone 3 necrosis”. As for `CC(=O)Oc1ccccc1C(=O)O` [Aspirin], in the data set on Rat primary hepatocytes (rat primary hepatocytes, 55.5 microM), the “Zone 3 Necrosis Pathology” value was “Absent”. In the case of `[N-]=[N+]=CC(=O)OC[C@H](N)C(=O)O` [Azaserine], the “Zone 3 Necrosis in vivo: Pathology Present” value in the data set with rat livers [3] (High 100 mg/kg (ip)) was 1,3 d. Besides, in the data set on Rat primary hepatocytes (rat primary hepatocytes, 500 microM), the “Zone 3 Necrosis Pathology” value is “Present”.

In the case of `CC[N+](C)(C)Cc1ccccc1Br` [Bretylium], in the data set on Rat primary hepatocytes, the “Zone 3 Necrosis Pathology” value is “Absent”. Consider `Brc1ccccc1` [Bromobenzene], for which the “Zone 3 Necrosis in vivo: Pathology Present” value in the data set on rat livers [1] (male) was 12, 48 h. Further, the “Zone 3 Necrosis Pathology” value with Rat primary hepatocytes (rat primary hepatocytes, 3000 microM) is “Present”.

Consider `ClC(Cl)(Cl)Cl` [CCl4, carbon tetrachloride], for which the “zonal necrosis of the liver produced” value in the data set with liver [2] is reported as “produce mainly zone 3 necrosis”. `CO/N=C(\C(=O)N[C@@H]1C(=O)N2C(C(=O)O)=C(COC(N)=O)CS[C@H]12)c1ccco1` [Cefuroxime]: the “Zone 3 Necrosis Pathology” value in the data set on Rat primary hepatocytes (rat primary hepatocytes, 224 microM) is “Absent”.

Regarding `[Ce+3].[Cl-].[Cl-].[Cl-]` [Cerium (III) Chloride], in the data set on Rat primary hepatocytes (setting [9]), the “Zone 3 Necrosis Pathology” value is recorded as “Present”. `ClC1=C(Cl)C2(Cl)C3C(Cl)C(Cl)CC3C1(Cl)C2(Cl)Cl` (stereo not shown) [Chlordane]: the “Zone 3 Necrosis Pathology” value in the data set with Rat primary hepatocytes (rat primary hepatocytes, 8 microM) was “Absent”. `CCOC(=O)C(C)(C)Oc1ccc(Cl)cc1` [Clofibrate]: the hypertrophy in vivo entry in the data set on liver [4] is recorded as “produced hypertrophy in vivo”. In addition, the “Zone 3 Necrosis Pathology” value with Rat primary hepatocytes (setting [7]) is given as “Absent”. As for `Clc1cccc(Cl)c1N=C1NCCN1` [Clonidine], the “Zone 3 Necrosis Pathology” value in the data set on Rat primary hepatocytes was “Absent”. As for `O=c1ccc2ccccc2o1` [Coumarin], in the data set with rat livers [3] (High 150 mg/kg/d), the “Zone 3 Necrosis in vivo: Pathology Present” value stood at 3 d. Further, the “Zone 3 Necrosis Pathology” value in the data set on Rat primary hepatocytes (setting [6]) was “Present”. For the compound `C[C@@H]1C[C@H]2[C@@H]3CCC4=CC(=O)C=C[C@]4(C)[C@@]3(F)[C@@H](O)C[C@]2(C)[C@@]1(O)C(=O)CO` [Dexamethasone], in the data set with Rat primary hepatocytes, the “Zone 3 Necrosis Pathology” value is on record as “Absent”. Take `CCN(CC)N=O` [Diethylnitrosamine]: in the data set with rat livers [1], the “Zone 3 Necrosis in vivo: Pathology Present” value is on record as 1, 3, 7 d. In addition, the “Zone 3 Necrosis Pathology” value in the data set on Rat primary hepatocytes (rat primary hepatocytes, 300 microM) is reported as “Present”. In the data set with liver [5], the hepatocellular carcinoma result was “show evidence of producing hepatocellular carcinoma in rats”. As to `CN(C)C=O` [Dimethylformamide], the “Zone 3 Necrosis in vivo: Pathology Present” value in the data set on rat livers [1] (male) came out at 48 h. For the same compound, in the data set on Rat primary hepatocytes (rat primary hepatocytes, 5000 microM), the “Zone 3 Necrosis Pathology” value is listed as “Present”. As for `CN(C)N=O` [Dimethylnitrosamine], the “Zone 3 Necrosis in vivo: Pathology Present” value in the data set with rat livers [1] is 7, 14 d. Further, the “Zone 3 Necrosis Pathology” value in the data set with Rat primary hepatocytes (setting [10]) was “Present”.

Regarding `c1cc[n+]2c(c1)-c1cccc[n+]1CC2` [Diquat], in the data set on rat livers [1] (male), the “Zone 3 Necrosis in vivo: Pathology Absent” value is on record as 6, 12, 24, 48 h.

Take `CC(C)N(CCC(C(N)=O)(c1ccccc1)c1ccccn1)C(C)C` (stereo not shown) [Disopyramide]: the “Zone 3 Necrosis Pathology” value in the data set with Rat primary hepatocytes (rat primary hepatocytes, 3 microM) is “Absent”. Take `COc1cccc2c1C(=O)c1c(O)c3c(c(O)c1C2=O)C[C@@](O)(C(=O)CO)C[C@@H]3O[C@H]1C[C@H](N)[C@H](O)[C@H](C)O1` [Doxorubicin]: the “Zone 3 Necrosis Pathology” value in the data set with Rat primary hepatocytes is on record as “Absent”. Consider `CCC(=O)O[C@H]1[C@H](O[C@@H]2[C@@H](C)[C@H](O[C@H]3C[C@@](C)(OC)[C@@H](O)[C@H](C)O3)[C@@H](C)C(=O)O[C@H](CC)[C@@](C)(O)[C@H](O)[C@@H](C)C(=O)[C@H](C)C[C@@]2(C)O)O[C@H](C)C[C@@H]1N(C)C.CCCCCCCCCCCCOS(=O)(=O)O` [Erythromycin Estolate (EE), Erythromycin Estolate], for which the “Zone 3 Necrosis Pathology” value in the data set on Rat primary hepatocytes (setting [9]) is on record as “Absent”. For the compound `CCO` [Ethanol], the “Zone 3 Necrosis Pathology” value with Rat primary hepatocytes is “Absent”. As to `CCSCC[C@H](N)C(=O)O` [Ethionine], in the data set on Rat primary hepatocytes (setting [10]), the “Zone 3 Necrosis Pathology” value was “Present”. With `CCC1(C)CC(=O)NC1=O` (stereo not shown) [Ethosuximide], in the data set on Rat primary hepatocytes (setting [10]), the “Zone 3 Necrosis Pathology” value is on record as “Absent”.

On to `OC(c1ccc(Cl)cc1)(c1cncnc1)c1ccccc1Cl` (stereo not shown) [Fenarimol], for which the “Zone 3 Necrosis Pathology” value in the data set with Rat primary hepatocytes (setting [9]) is on record as “Absent”. Take `OC(Cn1cncn1)(Cn1cncn1)c1ccc(F)cc1F` [Fluconazole]: in the data set with Rat primary hepatocytes, the “Zone 3 Necrosis Pathology” value is “Absent”. With `CCCC[C@@H](C)[C@@H](OC(=O)C[C@@H](CC(=O)O)C(=O)O)[C@H](C[C@@H](C)C[C@H](O)CCCC[C@@H](O)C[C@H](O)[C@H](C)N)OC(=O)C[C@@H](CC(=O)O)C(=O)O` [Fumonisin B(1)], in the data set on liver [5], the hepatocellular carcinoma result is “show evidence of producing hepatocellular carcinoma in rats”. For the compound `NCC1(CC(=O)O)CCCCC1` [Gabapentin], the “Zone 3 Necrosis Pathology” value in the data set with Rat primary hepatocytes (setting [11]) was “Absent”. As for `CC(C)Cc1ccc(C(C)C(=O)O)cc1` (stereo not shown) [Ibuprofen], the “Zone 3 Necrosis Pathology” value in the data set on Rat primary hepatocytes (setting [12]) was “Absent”. For the compound `CC(=O)N1CCN(c2ccc(OCC3COC(Cn4ccnc4)(c4ccc(Cl)cc4Cl)O3)cc2)CC1` (stereo not shown) [Ketoconazole], the “Zone 3 Necrosis in vivo: Pathology Absent” value in the data set with rat livers [3] (male, liver, oral, 10 mg/kg/d) was 1, 3 d. Besides, in the data set on Rat primary hepatocytes (setting [11]), the “Zone 3 Necrosis Pathology” value is listed as “Absent”. Take `CCC1(c2ccccc2)NC(=O)N(C)C1=O` (stereo not shown) [Mephenytoin]: the “Zone 3 Necrosis Pathology” value in the data set on Rat primary hepatocytes (rat primary hepatocytes, 14.2 microM) is “Absent”. As to `Nc1cc(N2CCCCC2)nc(N)[n+]1[O-]` [Minoxidil], in the data set on Rat primary hepatocytes (rat primary hepatocytes, 0.166 microM), the “Zone 3 Necrosis Pathology” value was “Absent”.

`ClC1(Cl)C2(Cl)C3(Cl)C4(Cl)C(Cl)(Cl)C5(Cl)C3(Cl)C1(Cl)C5(Cl)C24Cl` (stereo not shown) [Mirex]: the “Zone 3 Necrosis Pathology” value in the data set with Rat primary hepatocytes (setting [12]) is given as “Absent”. For `[Mo]` [Molybdenum], in the data set on rat livers [3] (High 500 mg/kg/d), the “Zone 3 Necrosis in vivo: Pathology Present” value came out at 3 d. For the same compound, the “Zone 3 Necrosis Pathology” value in the data set with Rat primary hepatocytes (setting [12]) is “Present”. Regarding `C[C@H]1C(=O)O[C@@H]2CCN3CC=C(COC(=O)[C@](C)(O)[C@]1(C)O)[C@H]23` [Monocrotaline], the “Zone 3 Necrosis Pathology” value in the data set with Rat primary hepatocytes (setting [7]) is given as “Present”. Regarding `O=NN1CCCCC1` [N-Nitrosopiperidine], the “Zone 3 Necrosis Pathology” value in the data set with Rat primary hepatocytes (rat primary hepatocytes, 3200 microM) was “Present”. For `CCCCN(CCCC)N=O` [N-nitrosodibutylamine], the “Zone 3 Necrosis Pathology” value in the data set with Rat primary hepatocytes (rat primary hepatocytes, 200 microM) is listed as “Absent”.

For `O=NN1CCOCC1` [N-nitrosomorpholine], the “Zone 3 Necrosis Pathology” value with Rat primary hepatocytes (rat primary hepatocytes, 3750 microM) is “Present”. For the compound `O=NN(CCO)CCO` [Nitrosodiethanolamine], in the data set with Rat primary hepatocytes (setting [10]), the “Zone 3 Necrosis Pathology” value is “Absent”.

Consider `Oc1c(Cl)c(Cl)c(Cl)c(Cl)c1Cl` [Pentachlorophenol], for which the “Zone 3 Necrosis Pathology” value in the data set on Rat primary hepatocytes (rat primary hepatocytes, 19 microM) was “Absent”. As to `COc1cc2nc(N3CCN(C(=O)c4ccco4)CC3)nc(N)c2cc1OC` [Prazosin], the “Zone 3 Necrosis Pathology” value with Rat primary hepatocytes was “Absent”. Take `CC(=O)[C@H]1CC[C@H]2[C@@H]3CC=C4C[C@@H](O)CC[C@]4(C)[C@H]3CC[C@]12C` [Pregnenolone]: the “Zone 3 Necrosis Pathology” value in the data set on Rat primary hepatocytes (rat primary hepatocytes, 38 microM) is given as “Absent”. For `c1ccncc1` [Pyridine], in the data set with rat livers [1] (male), the “Zone 3 Necrosis in vivo: Pathology Present” value is reported as 14 d. Moreover, the “Zone 3 Necrosis Pathology” value in the data set with Rat primary hepatocytes was “Present”.

`CO[C@H]1/C=C/O[C@@]2(C)Oc3c(C)c(O)c4c(O)c(c(/C=N/N5CCN(C)CC5)c(O)c4c3C2=O)NC(=O)/C(C)=C\C=C\[C@H](C)[C@H](O)[C@@H](C)[C@@H](O)[C@@H](C)[C@H](OC(C)=O)[C@@H]1C` [Rifampicin]: the “Zone 3 Necrosis Pathology” value in the data set on Rat primary hepatocytes is reported as “Absent”. In the case of `CC(=N)S` [Thioacetamide], in the data set on Rat primary hepatocytes (rat primary hepatocytes, 2000 microM), the “Zone 3 Necrosis Pathology” value is “Present”. Turning to `NC(=S)c1ccccc1` [Thiobenzamide], the “Zone 3 Necrosis Pathology” value in the data set on Rat primary hepatocytes (setting [8]) is given as “Present”.
